Laboratory results taken from paper PMC10180065, “Mechanistic Studies of Arene–Ruthenium(II) Complexes with Carbothioamidopyrazoles as Alternative Cancer Drugs” (Molecules, 2023).

How the values were obtained:
Hela = assay: MTT cytotoxicity, Hela; type: cell-based, human; conditions: 48 h incubation, read-out: Cytotoxic effect, IC50
Description: (§1) Cytotoxicity was evaluated against fifteen adherent human cancer cell lines using the MTT test: colorectal adenocarcinoma cells Caco2 (ATCC® HTB-37™), colorectal adenocarcinoma cells HT29 (ATCC® HTB-38™), colon colorectal carcinoma HCT116 (ATCC® CCL-247™), colon adenocarcinoma COLO205 (ATCC® CCL-222™), colorectal adenocarcinoma SW620 (ATCC® CCL-227™), colorectal adenocarcinoma grade IV LoVo (ATCC® CCL-229™), hepatocellular carcinoma Hep 3b (ATCC® HB-8064™), endometrium adenocarcinoma HEC1A (ATCC® HTB-112™), Ishikawa (99040201; Sigma–Aldrich Sigma, St. Louis, MO, USA), cervical adenocarcinoma cells HeLa (ATCC® CCL-2™), lung epithelial carcinoma A549 (ATCC® CRM-CCL-185™), breast epithelial adenocarcinoma cell positive for estrogen and progesterone receptors MCF7 (ATCC® HTB-22™) and negative for expression of estrogen receptor HCC38 (ATCC® CRL-2314™), acute promyelocytic leukemia HL-60 (ATCC® CCL-240™), skin melanoma WM115 (ATCC® CRL-1676™), and 1 suspension cancer cell line: acute lymphoblastic leukemia NALM6 (purchased from the German Collection of Microorganisms and Cell Cultures). HT29, NALM6, HCC-38 and HL-60 cells were cultured in RPMI 1640 medium (Thermo Fisher Scientific, Waltham, MA, USA) supplemented with 10% fetal bovine serum and antibiotic (gentamicin 25 μg ml^−1) (Gibco, Grand Island, New York, NY, USA). For the remaining tumor cell lines, Dulbecco’s minimal essential medium (DMEM, Lonza, Visp, Switzerland) supplemented with 10% fetal bovine serum and antibiotic instead of RPMI 1640 was used. In addition, Human Microvascular Endothelial Cells (HMEC1), which were obtained from the American Type Culture Collection (Manassas, VA, USA), were used as a model of normal cells. HMEC-1 were cultured in MCDB131 medium (Corning Life Sciences, Corning, NY, USA), supplemented with 10% fetal bovine serum, 10 ng/mL Epidermal Growth Factor (Millipore, Burlington, MA, USA) and 10 mM glutamine (Corning Life Sciences). All cells were grown at 37 °C in humidified atmosphere of 5% CO2 in air. The exponential growth of cells was maintained by regular passaging at 90% confluence three times a week using 0.025% trypsin/EDTA (Gibco, Grand Island, New York, NY, USA).
(§2) The cytotoxicity was tested by a standard MTT [3-(4,5-dimethylthiazol-2-yl)-2,5-diphenyltetrazolium bromide] (Sigma, St. Louis, MO, USA) microplate cell viability assay. The anticancer activity of the investigated compounds was evaluated in vitro on the basis of their ability to inhibit the proliferation of various cancer cells. Exponentially growing cells were seeded a day before the experiment into a 96-well microplate (Nunc, Roskilde, Denmark) at a density up to 6–8 × 10^3 cells/mL (depending on the cell line) and exposed to the test compounds at a wide range of concentrations for 48 h. Subsequently, various concentrations of the studied compounds (10^−7–10^−5 M) freshly prepared in DMSO (final concentration of <0.1% DMSO) and diluted with complete culture medium were added. After 48 h incubation, the cells were immediately subjected to a cell viability assay. At this time point, the number of viable cells in each well was estimated by the MTT test. Briefly, 50 µL (5 mg/mL final concentration) of MTT was added to each microplate well. This procedure was then followed by a three- to four-hour incubation at 37 °C. After incubation, MTT solution was replaced with 100 µL DMSO/well, which solubilized the formazan crystals formed by the dehydrogenases of metabolically active cells. Purple formazan absorbance was measured spectrophotometrically at 570 nm.

HL60 = assay: MTT cytotoxicity, HL60; type: cell-based, human; conditions: 48 h incubation, read-out: Cytotoxic effect, IC50
Description: as §1, §2

Ishikawa = assay: MTT cytotoxicity, Ishikawa; type: cell-based, human; conditions: 48 h incubation, read-out: Cytotoxic effect, IC50
Description: as §1, §2

Lipophilicity by RP-TLC = type: physicochemical; design: key: RM = log(1/Rf − 1), Rf = a/b; conditions: eluent AcCN: H2O at 30–70% v/v, 22 °C
Description: All the experimental solutions of standard substances (0.1 mg/mL) were prepared by dissolving ligands (1a–1d) or ruthenium complexes (2a/3a–2d/3d) in ethanol. Commercially-available octadecyl-modified silica aluminum sheets (20 × 20 cm) were cut into 5 × 10 cm plates. The plates were manually spotted with 1.0 μL of freshly prepared solutions using automatic pipets, 5 mm from each edge. The chromatograms for all compounds (1a/2a/3a–1d/2d/3d) were developed using a horizontal developing chamber and the solvent migration distance was about 4.5 cm. The plates were visually inspected under UV light at 254 nm. Each zone was clearly marked and its distance was manually measured. The RP-TLC analyses of lipophilicity were performed at ambient temperature (22 °C). In this experiment, all measurements were performed in triplicate and the obtained results were used in further calculations. The acetonitrile and water mixtures for ligands 1a–1d and arene–ruthenium(II) complexes 2a/3a–2d/3d were used as mobile phases, with […] content increasing in the range of 30–70% v/v, at 5% intervals. Values of the chromatographic retention coefficient Rf (as shown Formula (1)) and RM (as shown Formula (2)), based on received chromatograms, were calculated and converted as follows:(1) Rf=a/b (2) RM=log1/Rf−1

WM115 = assay: MTT cytotoxicity, WM115; type: cell-based, human; conditions: 48 h incubation, read-out: Cytotoxic effect, IC50
Description: as §1, §2

HEC1A = assay: MTT cytotoxicity, HEC1A; type: cell-based, human; conditions: 48 h incubation, read-out: Cytotoxic effect, IC50
Description: as §1, §2

NALM6 = assay: MTT cytotoxicity, NALM6; type: cell-based, human; conditions: 48 h incubation, read-out: Cytotoxic effect, IC50
Description: as §1, §2

PARP1 [1] = assay: Cleaved PARP level (ELISA), WM115 cells; type: cell-based, human; conditions: WM115, 24 h at IC50 concentration
Description: (§3) Cells (1 × 10^6) were seeded in 35 mm dishes and cultured for 24 h in the appropriate medium until they reached log phase growth. […] After incubation, the medium was removed, the cells were washed with PBS solution and trypsinized. The harvested cell pellet was lysed in RIPA buffer (50 mM Tris-HCL, pH 8.0, with 150 mM sodium chloride, 1.0% Igepal CA-630 (NP-40), 0.5% sodium deoxychlorate, and 0.1% sodium dodecyl sulfate) with protease inhibitor (phenylmethylsulfonyl fluoride) (Sigma-Aldrich Sigma, St. Louis, MO, USA). The level of cleaved PARP was estimated using the PARP Cleaved [214/215] ELISA kit (Invitrogen, Waltham, MA, USA) according to the protocol described in the manufacturer’s instructions.

A549 = assay: MTT cytotoxicity, A549; type: cell-based, human; conditions: 48 h incubation, read-out: Cytotoxic effect, IC50
Description: as §1, §2

[2] = pH dependent stability of the complexes (UV–Vis); type: physicochemical; conditions: 24 h and 48 h
Description: The stability measurements were performed on a UV 1800 Shimadzu spectrophotometer (Kyoto, Japan) at room temperature. The complexes 2d and 3d were tested for the stabilities in buffer Na2HPO4 (pH 4 and 8). UV–Vis spectra were recorded hourly for 48 h at 22 °C. The spectra were recorded in the range of 200–800 nm over a time course of 0, 24, and 48 h.

HCC38 = assay: MTT cytotoxicity, HCC38; type: cell-based, human; conditions: 48 h incubation, read-out: Cytotoxic effect, IC50
Description: as §1, §2

SW620 = assay: MTT cytotoxicity, SW620; type: cell-based, human; conditions: 48 h incubation, read-out: Cytotoxic effect, IC50
Description: as §1, §2

Caco2 = assay: MTT cytotoxicity, Caco2; type: cell-based, human; conditions: 48 h incubation, read-out: Cytotoxic effect, IC50
Description: as §1, §2

LoVo = assay: MTT cytotoxicity, LoVo; type: cell-based, human; conditions: 48 h incubation, read-out: Cytotoxic effect, IC50
Description: as §1, §2

MCF7 = assay: MTT cytotoxicity, MCF7; type: cell-based, human; conditions: 48 h incubation, read-out: Cytotoxic effect, IC50
Description: as §1, §2

[3] = system: human microvascular endothelial cell line HMEC1; assay: MTT cytotoxicity, normal endothelial cells HMEC1; type: cell-based; conditions: for IC50: HMEC1 normal endothelial cells, 48 h incubation, read-out: Cytotoxic effect, IC50; for IC50 for HMEC-1 higher than for cancer cells (selectivity): HMEC-1 vs cancer cells
Description: as §1, §2

Hep 3b = assay: MTT cytotoxicity, Hep 3b; type: cell-based, human; conditions: 48 h incubation, read-out: Cytotoxic effect, IC50
Description: as §1, §2

HT29 = assay: MTT cytotoxicity, HT29; type: cell-based, human; conditions: 48 h incubation, read-out: Cytotoxic effect, IC50
Description: as §1, §2

Colo205 [4] = assay: MTT cytotoxicity, Colo205; type: cell-based, human; conditions: 48 h incubation, read-out: Cytotoxic effect, IC50
Description: as §1, §2

Colo205 [5] = assay: RNS generation, DAF-FM probe, COLO205; type: cell-based, human; conditions: COLO205, 24 h at IC50 concentration
PARP1 [6] = assay: Cleaved PARP level (ELISA), COLO205 cells; type: cell-based, human; conditions: COLO205, 24 h at IC50 concentration
Description: as §3

human cancer cell lines = assay: MTT cytotoxicity, summary statements over the cancer cell line panel; type: cell-based; conditions: read-out: IC50 for seven (2c) and six (3c) cancer cell lines
Description: (§4) Cytotoxicity was evaluated against fifteen adherent human cancer cell lines using the MTT test: colorectal adenocarcinoma cells Caco2 (ATCC® HTB-37™), colorectal adenocarcinoma cells HT29 (ATCC® HTB-38™), colon colorectal carcinoma HCT116 (ATCC® CCL-247™), colon adenocarcinoma COLO205 (ATCC® CCL-222™), colorectal adenocarcinoma SW620 (ATCC® CCL-227™), colorectal adenocarcinoma grade IV LoVo (ATCC® CCL-229™), hepatocellular carcinoma Hep 3b (ATCC® HB-8064™), endometrium adenocarcinoma HEC1A (ATCC® HTB-112™), Ishikawa (99040201; Sigma–Aldrich Sigma, St. Louis, MO, USA), cervical adenocarcinoma cells HeLa (ATCC® CCL-2™), lung epithelial carcinoma A549 (ATCC® CRM-CCL-185™), breast epithelial adenocarcinoma cell positive for estrogen and progesterone receptors MCF7 (ATCC® HTB-22™) and negative for expression of estrogen receptor HCC38 (ATCC® CRL-2314™), acute promyelocytic leukemia HL-60 (ATCC® CCL-240™), skin melanoma WM115 (ATCC® CRL-1676™), and 1 suspension cancer cell line: acute lymphoblastic leukemia NALM6 (purchased from the German Collection of Microorganisms and Cell Cultures). […]
(§5) The cytotoxicity was tested by a standard MTT [3-(4,5-dimethylthiazol-2-yl)-2,5-diphenyltetrazolium bromide] […] The anticancer activity of the investigated compounds was evaluated in vitro on the basis of their ability to inhibit the proliferation of various cancer cells. […]

HCT116 = assay: MTT cytotoxicity, HCT116; type: cell-based, human; conditions: 48 h incubation, read-out: Cytotoxic effect, IC50
Description: as §4, §5

Cc1cc(O)n(C(N)=S)n1.Cc1ccc(C(C)C)cc1.[Cl-].[Cl][Ru+] [2d]
IC50 (Hela): 111 ± 1.7 µM
IC50 (HL60): > 200 µM
IC50 (Ishikawa): 100 ± 6.7 µM
Lipophilicity, RM (Lipophilicity by RP-TLC): 1.64
IC50 (WM115): 8 ± 0.9 µM
IC50 (HEC1A): 67.8 ± 6.1 µM
IC50 (NALM6): > 200 µM
increase in level of PARP1 degradation compared to controls (PARP1 [1]): approximately 115%
IC50 (A549): > 200 µM
Stability, UV–Vis absorption maxima ([2]; pH 4 buffer): did not change
Stability, UV–Vis absorption maxima ([2]; pH 8 buffer): loss absorption
IC50 (HCC38): > 200 µM
IC50 (SW620): > 200 µM
IC50 (Caco2): > 200 µM
IC50 (LoVo): > 200 µM
IC50 (MCF7): > 200 µM
IC50 [3]: 163 ± 5.9 µM
IC50 for HMEC-1 higher than for cancer cells (selectivity) [3]: 3–5 times
IC50 (Hep 3b): > 200 µM
IC50 (HT29): 168 ± 7.5 µM
IC50 (Colo205 [4]): > 200 µM

Cc1ccc(C(C)C)cc1.F[P-](F)(F)(F)(F)F.NC(=S)n1nc(-c2ccccc2)cc1O.[Cl-].[Ru+2] [3c]
increase in nitrogen peroxide (RNS, DAF-FM probe) vs. control (Colo205 [5]): ~25%
IC50 (Hela): 78.8 ± 1.1 µM
IC50 (HL60): 70.4 ± 6 µM
IC50 (Ishikawa): 124.3 ± 0.9 µM
Lipophilicity, RM (Lipophilicity by RP-TLC): 2.61
IC50 (WM115): 18.7 ± 1.7 µM
IC50 (HEC1A): 39.9 ± 4.1 µM
IC50 (NALM6): 19.8 ± 1.8 µM
IC50 (A549): 191 ± 4.3 µM
IC50 (HCC38): 131 ± 2.2 µM
IC50 (SW620): 90.1 ± 1.7 µM
increase in level of PARP1 degradation vs. control (PARP1 [6]): approximately 85%
IC50 (human cancer cell lines): < 50 µM
IC50 (Caco2): 172 ± 8.2 µM
IC50 (LoVo): 32.4 ± 1.8 µM
IC50 (MCF7): 30.4 ± 2.1 µM
IC50 [3]: 164 ± 3.1 µM
IC50 for HMEC-1 higher than for cancer cells (selectivity) [3]: 3–5 times
IC50 (Hep 3b): 52.1 ± 3.4 µM
IC50 (HT29): 128 ± 4.2 µM
IC50 (Colo205 [4]): 26.7 ± 2.1 µM

Cl.[Cl-].[Cl-].[Cl-].[Ru+3].c1c[nH]cn1.c1c[nH]cn1 [NAMI-A, reference compound]
IC50 (Ishikawa): > 200 µM
IC50 (WM115): > 200 µM
IC50 (HEC1A): > 200 µM
IC50 (NALM6): > 200 µM
IC50 (HCT116): > 200 µM
IC50 (SW620): > 200 µM
IC50 (MCF7): 14.1 ± 1.5 µM
IC50 (Hep 3b): > 200 µM
IC50 (HT29): > 200 µM
IC50 (Colo205 [4]): > 200 µM
